Measurements published in patent US20060018827A1, “Positron therapy of inflammation, infection and disease” (priority 2004, published 2006).
Where two headings read alike, the source gives them in different places.

Columns and labels:
[1] = Human Maximum Tolerated Dose (MTD) of ^18F-FDG, organ dosimetry calculation; details: for 5 Ci FDG Organ dose / 7.5 Ci FDG Organ dose / MTD FDG (calculated MTD of ^18F-FDG for the organ): 70 Kg person
Method: The dose-limiting organ for therapy with ^18F-FDG is the bone marrow. The activity of ^18F-FDG that will deliver doses of 200 rad to the red marrow (less than 5% damage in 5 years) (Early and Sodee, 1995) and also 300 rad were calculated using the Medical Internal Radionuclide Dosimetry formalism. A dose of 300 rad was considered because it causes acceptable and manageable hematologic toxicity in selected patients (Early and Sodee, 1995). The subsequent doses delivered to ^18F-FDG-avid tumors were calculated.
Human Maximum Tolerated Dose (MTD) of ^18F-FDG. Table 1 indicates the radiation dose (Column 2) to each organ (Column 1) from 1mCi of ^18F-FDG for a 70 Kg person. The tolerated radiation dose of each organ (5% complications in 5 years) is described in Table 1, Column 3. The MTD of ^18F-FDG for each organ is described in Table 1, Column 4. The smallest value in this column is 4.88 Ci, which is the MTD of ^18F-FDG for a 70 Kg person, delivering 200 cGy to the ovaries. This is the critical organ for female patients; however, female patients with metastatic cancer have usually undergone chemotherapy causing ovarian failure or may choose to accept ovarian failure as a side effect of therapy. If ovarian function is not a consideration, then the critical organ is the bone marrow for both male and female patients. A dose of 5.00 Ci of ^18F-FDG would deliver 200 cGy to the bone marrow of a 70 Kg person.

xenografted Notch tumor = test: Treatment of Notch tumor-bearing mice with ^18F-FDG; format: in vivo, mouse; details: Notch tumor-bearing nude mice, 2.5 mCi i.p.
Method: Notch cell line. Mouse mammary gland cell line 5505 was derived from mammary tumors arising in transgenic mice which express an activated form of Notch 4 from the mouse mammary tumor virus long terminal repeat (MMTV-LTR) promoter/enhancer (Fitzgerald et al. 2000). This cell line is further referred to herein as Notch cells. The Notch cells were cultured in DMEM supplemented with 10% FCS, 10% NCTC-109, 1% non-essential amino acids, […] D-glucose and 1% penicillin-streptomycin.
Animals. All procedures involving mice were conducted in accordance with the National Institutes of Health regulations concerning the use and care of experimental animals. The study of mice was approved by the Albert Einstein College of Medicine (AECOM) Animal Use Committee. Transgenic mice expressing the polyoma middle T antigen (PyMT) in the mammary epithelium under the control of mouse mammary tumor virus (MMTV) long terminal repeat were provided by Dr. W. J. Muller (McMaster University, Ontario, Canada) and then bred at AECOM. At the age of 10 weeks these mice have multiple mammary tumors 0.15-0.17 cm in diameter. In mice older than 18 weeks the tumors are more than 1 cm in diameter. MMTV-NeuT mice (Muller et al. 1988), which carry erbB-2 (Neu), one of the better known human breast cancer oncogenes, were purchased from Jackson Laboratories. MMTV-NeuT mice were obtained as retired breeders and some of them developed mammary tumors at the age of 5 months, whereas others remained-tumor free until 6-7 months of age. C3H/B6 female mice lacking the PyMT transgene were used as healthy controls in therapy experiments. […]
Treatment of Notch tumor-bearing mice with ^18F-FDG. […] Animals were monitored for their vital signs and survival for 1 month. Their tumors were measured every 3 days with calipers in three perpendicular planes and the product of the three measurements was multiplied by 0.5 and expressed in cm^3. The growth rate for tumors in cm^3/day was calculated using the formula: […]/number of days survived. […]

[2] = 70 Kg person, cited from earlier work
BALB/c mice = test: Radiotoxicity studies of ^18F-FDG in healthy mice; format: in vivo, mouse; details: doses of up to 5 mCi i.p., 1 month
Method: Radiotoxicity studies of ^18F-FDG in healthy mice. After a 4-hour fast, […] of BALB/c mice were treated i.p. with the following doses of ^18F-FDG: group 1 (three mice), 2.5 mCi; group 2 (three mice), 5 mCi; group 3 (three mice), left untreated for control. The mice were monitored for changes in behavior and body weight for 1 month, after which they were killed. Their heart, brain, liver, kidneys, bladder, and bone marrow were removed, fixed in buffered formalin, sectioned, stained with hematoxylin and eosin (H&E), and analyzed histologically.

O=C[C@H]([18F])[C@@H](O)[C@H](O)[C@H](O)CO [^18F-FDG, ^18F-2-deoxy-2-fluoro-D-glucose]
5 Ci FDG Organ dose ([1]; Bone marrow): 200 cGy | 7.5 Ci FDG Organ dose ([1]; Bone marrow): 300 cGy | 5 Ci FDG Organ dose ([1]; Brain): 850 cGy | 7.5 Ci FDG Organ dose ([1]; Brain): 1275 cGy | MTD FDG (calculated MTD of ^18F-FDG for the organ) ([1]; Brain, organ MTD 4500 cGy (5% complications in 5 years)): 26.47 Ci | 5 Ci FDG Organ dose ([1]; Heart wall): 1250 cGy | 7.5 Ci FDG Organ dose ([1]; Heart wall): 1875 cGy | MTD FDG (calculated MTD of ^18F-FDG for the organ) ([1]; Heart wall, organ MTD 4000 cGy (5% complications in 5 years)): 16.00 Ci | 5 Ci FDG Organ dose ([1]; Kidneys): 390 cGy | 7.5 Ci FDG Organ dose ([1]; Kidneys): 585 cGy | MTD FDG (calculated MTD of ^18F-FDG for the organ) ([1]; Kidneys, organ MTD 2300 cGy (5% complications in 5 years)): 29.49 Ci | 5 Ci FDG Organ dose ([1]; Liver): 440 cGy | 7.5 Ci FDG Organ dose ([1]; Liver): 660 cGy | MTD FDG (calculated MTD of ^18F-FDG for the organ) ([1]; Liver, organ MTD 3000 cGy (5% complications in 5 years)): 34.09 Ci | 5 Ci FDG Organ dose ([1]; Lungs): 280 cGy | 7.5 Ci FDG Organ dose ([1]; Lungs): 420 cGy | MTD FDG (calculated MTD of ^18F-FDG for the organ) ([1]; Lungs, organ MTD 6500 cGy (5% complications in 5 years)): 116.07 Ci | 5 Ci FDG Organ dose ([1]; Ovaries): 205 cGy | 7.5 Ci FDG Organ dose ([1]; Ovaries): 308 cGy | MTD FDG (calculated MTD of ^18F-FDG for the organ) ([1]; Ovaries, organ MTD 200 cGy (5% complications in 5 years)): 4.88 Ci | 5 Ci FDG Organ dose ([1]; Testes): 205 cGy | 7.5 Ci FDG Organ dose ([1]; Testes): 308 cGy | MTD FDG (calculated MTD of ^18F-FDG for the organ) ([1]; Testes, organ MTD 500 cGy (5% complications in 5 years)): 12.20 Ci | 5 Ci FDG Organ dose ([1]; Urinary bladder): 1350 cGy | 7.5 Ci FDG Organ dose ([1]; Urinary bladder): 2025 cGy | MTD FDG (calculated MTD of ^18F-FDG for the organ) ([1]; Urinary bladder, organ MTD 6500 cGy (5% complications in 5 years)): 24.07 Ci | dose to the brain ([1]; administered dose of 7.50 Ci): 1275 rad | mean (95% CI) time to death (xenografted Notch tumor): 18 (13-23) days | survival period (xenografted Notch tumor; longest survival): up to 30 days | median tumor growth rate (xenografted Notch tumor; therapy group): 0.020 cm^3/day | Radiation dose to organ from 1 mCi ^18F-FDG ([2]; Bone marrow): 0.04 cGy/mCi | Radiation dose to organ from 1 mCi ^18F-FDG ([2]; Brain): 0.17 cGy/mCi | Radiation dose to organ from 1 mCi ^18F-FDG ([2]; Heart wall): 0.25 cGy/mCi | Radiation dose to organ from 1 mCi ^18F-FDG ([2]; Kidneys): 0.078 cGy/mCi | Radiation dose to organ from 1 mCi ^18F-FDG ([2]; Liver): 0.088 cGy/mCi | Radiation dose to organ from 1 mCi ^18F-FDG ([2]; Lungs): 0.056 cGy/mCi | Radiation dose to organ from 1 mCi ^18F-FDG ([2]; Ovaries): 0.041 cGy/mCi | Radiation dose to organ from 1 mCi ^18F-FDG ([2]; Testes): 0.041 cGy/mCi | Radiation dose to organ from 1 mCi ^18F-FDG ([2]; Urinary bladder): 0.27 cGy/mCi | damage in major organs including bone marrow (histological examination) (BALB/c mice): no damage in major organs
